From ChEMBL document CHEMBL1921774, “Evaluation of 18F-labeled benzodioxine piperazine-based dopamine D4 receptor ligands: lipophilicity as a determinate of nonspecific binding” (J Med Chem, 2011)

What was measured:
Bone [1] = assay: Biodistribution in NMRI mouse bone at 1.1 to 2.6 MBq, iv after 5 mins by gamma counting; format: ADME, organism-based, Bone element; conditions: in vivo
Intestine [2] = assay: Biodistribution in NMRI mouse intestine at 1.1 to 2.6 MBq, iv after 15 mins by gamma counting; format: ADME, organism-based; conditions: in vivo, 0.25 h
Liver [3] = assay: Biodistribution in NMRI mouse liver at 1.1 to 2.6 MBq, iv after 10 mins by gamma counting; format: ADME, organism-based; conditions: in vivo
Brain [4] = assay: Biodistribution in NMRI mouse brain at 1.1 to 2.6 MBq, iv after 10 mins by gamma counting; format: ADME, organism-based; conditions: in vivo
Spleen [5] = assay: Biodistribution in NMRI mouse spleen at 1.1 to 2.6 MBq, iv after 15 mins by gamma counting; format: ADME, organism-based; conditions: in vivo, 0.25 h
Lung [6] = assay: Biodistribution in NMRI mouse lung at 1.1 to 2.6 MBq, iv after 5 mins by gamma counting; format: ADME, organism-based; conditions: in vivo
Bone [7] = assay: Biodistribution in NMRI mouse bone at 1.1 to 2.6 MBq, iv after 15 mins by gamma counting; format: ADME, organism-based, Bone element; conditions: in vivo, 0.25 h
Pancreas [8] = assay: Biodistribution in NMRI mouse pancreas at 1.1 to 2.6 MBq, iv after 10 mins by gamma counting; format: ADME, organism-based; conditions: in vivo
Bone [9] = assay: Biodistribution in NMRI mouse bone at 1.1 to 2.6 MBq, iv after 10 mins by gamma counting; format: ADME, organism-based, Bone element; conditions: in vivo
Brain [10] = assay: Biodistribution in NMRI mouse brain at 1.1 to 2.6 MBq, iv after 5 mins by gamma counting; format: ADME, organism-based; conditions: in vivo
Kidney [11] = assay: Biodistribution in NMRI mouse kidney at 1.1 to 2.6 MBq, iv after 15 mins by gamma counting; format: ADME, organism-based; conditions: in vivo, 0.25 h
Brain [12] = assay: Drug metabolism in NMRI mouse brain at […], iv measured 10 mins post injection; format: ADME, organism-based; conditions: in vivo
Lung [13] = assay: Biodistribution in NMRI mouse lung at 1.1 to 2.6 MBq, iv after 15 mins by gamma counting; format: ADME, organism-based; conditions: in vivo, 0.25 h
Lung [14] = assay: Biodistribution in NMRI mouse lung at 1.1 to 2.6 MBq, iv after 30 mins by gamma counting; format: ADME, organism-based; conditions: in vivo, 0.5 h
Pancreas [15] = assay: Biodistribution in NMRI mouse pancreas at 1.1 to 2.6 MBq, iv after 30 mins by gamma counting; format: ADME, organism-based; conditions: in vivo, 0.5 h
Intestine [16] = assay: Biodistribution in NMRI mouse intestine at 1.1 to 2.6 MBq, iv after 30 mins by gamma counting; format: ADME, organism-based; conditions: in vivo, 0.5 h
Pancreas [17] = assay: Biodistribution in NMRI mouse pancreas at 1.1 to 2.6 MBq, iv after 15 mins by gamma counting; format: ADME, organism-based; conditions: in vivo, 0.25 h
Blood [18] = assay: Biodistribution in NMRI mouse blood at 1.1 to 2.6 MBq, iv after 30 mins by gamma counting; format: ADME, organism-based; conditions: in vivo, 0.5 h
Serum = assay: Metabolic stability in NMRI mouse serum assessed as remaining radioactivity at 1.1 to 2.6 MBq, iv by TLC analysis; format: ADME, organism-based; conditions: in vivo
Kidney [19] = assay: Biodistribution in NMRI mouse kidney at 1.1 to 2.6 MBq, iv after 30 mins by gamma counting; format: ADME, organism-based; conditions: in vivo, 0.5 h
Heart [20] = assay: Biodistribution in NMRI mouse heart at 1.1 to 2.6 MBq, iv after 5 mins by gamma counting; format: ADME, organism-based; conditions: in vivo
[21] = Chemical stability of the compound on silica gel on TLC plate assessed as half life; format: physicochemical
Liver [22] = assay: Biodistribution in NMRI mouse liver at 1.1 to 2.6 MBq, iv after 15 mins by gamma counting; format: ADME, organism-based; conditions: in vivo, 0.25 h
Kidney [23] = assay: Biodistribution in NMRI mouse kidney at 1.1 to 2.6 MBq, iv after 5 mins by gamma counting; format: ADME, organism-based; conditions: in vivo
Spleen [24] = assay: Biodistribution in NMRI mouse spleen at 1.1 to 2.6 MBq, iv after 30 mins by gamma counting; format: ADME, organism-based; conditions: in vivo, 0.5 h
Kidney [25] = assay: Biodistribution in NMRI mouse kidney at 1.1 to 2.6 MBq, iv after 10 mins by gamma counting; format: ADME, organism-based; conditions: in vivo
Lung [26] = assay: Biodistribution in NMRI mouse lung at 1.1 to 2.6 MBq, iv after 10 mins by gamma counting; format: ADME, organism-based; conditions: in vivo
Blood [27] = assay: Biodistribution in NMRI mouse blood at 1.1 to 2.6 MBq, iv after 15 mins by gamma counting; format: ADME, organism-based; conditions: in vivo, 0.25 h
Bone [28] = assay: Biodistribution in NMRI mouse bone at 1.1 to 2.6 MBq, iv after 30 mins by gamma counting; format: ADME, organism-based, Bone element; conditions: in vivo, 0.5 h
Blood [29] = assay: Biodistribution in NMRI mouse blood at 1.1 to 2.6 MBq, iv after 10 mins by gamma counting; format: ADME, organism-based; conditions: in vivo
Spleen [30] = assay: Biodistribution in NMRI mouse spleen at 1.1 to 2.6 MBq, iv after 5 mins by gamma counting; format: ADME, organism-based; conditions: in vivo
Heart [31] = assay: Biodistribution in NMRI mouse heart at 1.1 to 2.6 MBq, iv after 30 mins by gamma counting; format: ADME, organism-based; conditions: in vivo, 0.5 h
[32] = Chemical stability of the compound on […] oxide gel on TLC plate assessed as half life; format: physicochemical
Intestine [33] = assay: Biodistribution in NMRI mouse intestine at 1.1 to 2.6 MBq, iv after 10 mins by gamma counting; format: ADME, organism-based; conditions: in vivo
Liver [34] = assay: Biodistribution in NMRI mouse liver at 1.1 to 2.6 MBq, iv after 5 mins by gamma counting; format: ADME, organism-based; conditions: in vivo
Brain [35] = assay: Biodistribution in NMRI mouse brain at 1.1 to 2.6 MBq, iv after 30 mins by gamma counting; format: ADME, organism-based; conditions: in vivo, 0.5 h
Brain [36] = assay: Biodistribution in NMRI mouse brain at 1.1 to 2.6 MBq, iv after 15 mins by gamma counting; format: ADME, organism-based; conditions: in vivo, 0.25 h
Liver [37] = assay: Biodistribution in NMRI mouse liver at 1.1 to 2.6 MBq, iv after 30 mins by gamma counting; format: ADME, organism-based; conditions: in vivo, 0.5 h
Heart [38] = assay: Biodistribution in NMRI mouse heart at 1.1 to 2.6 MBq, iv after 10 mins by gamma counting; format: ADME, organism-based; conditions: in vivo
Pancreas [39] = assay: Biodistribution in NMRI mouse pancreas at 1.1 to 2.6 MBq, iv after 5 mins by gamma counting; format: ADME, organism-based; conditions: in vivo
Intestine [40] = assay: Biodistribution in NMRI mouse intestine at 1.1 to 2.6 MBq, iv after 5 mins by gamma counting; format: ADME, organism-based; conditions: in vivo
Heart [41] = assay: Biodistribution in NMRI mouse heart at 1.1 to 2.6 MBq, iv after 15 mins by gamma counting; format: ADME, organism-based; conditions: in vivo, 0.25 h
Spleen [42] = assay: Biodistribution in NMRI mouse spleen at 1.1 to 2.6 MBq, iv after 10 mins by gamma counting; format: ADME, organism-based; conditions: in vivo
Blood [43] = assay: Biodistribution in NMRI mouse blood at 1.1 to 2.6 MBq, iv after 5 mins by gamma counting; format: ADME, organism-based; conditions: in vivo

[18F]c1ccc(CN2CCN(c3ccc4c(c3)OCCO4)CC2)cn1
Drug uptake (Bone [1]): 2.03 % ID/g
Drug uptake (Intestine [2]): 2.51 % ID/g
Drug uptake (Liver [3]): 6.78 % ID/g
Drug uptake (Brain [4]): 2.85 % ID/g
Drug uptake (Spleen [5]): 3.19 % ID/g
Drug uptake (Lung [6]): 12.99 % ID/g
Drug uptake (Bone [7]): 2.7 % ID/g
Drug uptake (Pancreas [8]): 11.1 % ID/g
Drug uptake (Bone [9]): 2.54 % ID/g
Drug uptake (Brain [10]): 4.93 % ID/g
Drug uptake (Kidney [11]): 4.67 % ID/g
Drug metabolism (Brain [12]): Active
Drug uptake (Lung [13]): 4.79 % ID/g
Drug uptake (Lung [14]): 2.68 % ID/g
Drug uptake (Pancreas [15]): 7.43 % ID/g
Drug uptake (Intestine [16]): 4.47 % ID/g
Drug uptake (Pancreas [17]): 6.88 % ID/g
Drug uptake (Blood [18]): 0.53 % ID/g
Stability (Serum): > 98%
Drug uptake (Kidney [19]): 6.03 % ID/g
Drug uptake (Heart [20]): 1.8 % ID/g
half-life [21]: 15 min
Drug uptake (Liver [22]): 5.67 % ID/g
Drug uptake (Kidney [23]): 8.23 % ID/g
Drug uptake (Spleen [24]): 3.13 % ID/g
Drug uptake (Kidney [25]): 5.86 % ID/g
Drug uptake (Lung [26]): 4.84 % ID/g
Drug uptake (Blood [27]): 1.23 % ID/g
Drug uptake (Bone [28]): 0.93 % ID/g
Drug uptake (Blood [29]): 1.29 % ID/g
Drug uptake (Spleen [30]): 4.42 % ID/g
Drug uptake (Heart [31]): 1.13 % ID/g
half-life [32]: 50 min
Drug uptake (Intestine [33]): 2.68 % ID/g
Drug uptake (Liver [34]): 4.13 % ID/g
Drug uptake (Brain [35]): 1.47 % ID/g
Drug uptake (Brain [36]): 2.27 % ID/g
Drug uptake (Liver [37]): 7.79 % ID/g
Drug uptake (Heart [38]): 0.52 % ID/g
Drug uptake (Pancreas [39]): 8.36 % ID/g
Drug uptake (Intestine [40]): 2.16 % ID/g
Drug uptake (Heart [41]): 0.58 % ID/g
Drug uptake (Spleen [42]): 3.6 % ID/g
Drug uptake (Blood [43]): 1.62 % ID/g
